According to patent publication US20250034161A1, “SPIROCYCLIC COMPOUND AS KRAS-G12C INHIBITOR” (Shanghai Euregen Biopharma Co., Ltd., priority 2020, published 2025):

Tests used:
CYP 3A4 = CYP 3A4 (Homo sapiens, UniProt P08684); experiment: CYP inhibition test, human liver microsomes, CYP3A4; details: IC50(μM)
Description: (§1) • 1. Test purpose: to evaluate the inhibitory ability of some of the example compounds of the present invention against CYP1A2, 2B6, 2C8, 2C9, 2C19, 2D6 and 3A4 via human liver microsomes. • 2. […] Test method:
• 1. K/Mg buffer: the components were 0.1 mol/L potassium phosphate and 5 mmol/L magnesium chloride with pH 7.4±0.1, preheated. • 2. Solution of the test compound: the test compound was dissolved in dimethyl sulfoxide to prepare a stock solution of 10 mmol/L. 8 μL of 10 mmol/L stock solution was transferred to a 96-well plate containing 12 μL of acetonitrile as the highest concentration point, at 3-fold dilution, for 8 concentrations. • 3. […] Human liver microsomal stock solution: human liver microsomes were dissolved in 0.1 mol/L K/Mg buffer to obtain 20 mg/mL stock solution. • 5. Human liver microsomal working solution: 10 μL of 20 mg/mL human liver microsomal stock solution was taken and added into 990 μL of 0.1 mol/L K/Mg buffer to prepare 0.2 mg/mL human liver microsomal solution. • 6.
600 μL of 0.2 mg/mL human liver microsomal solution and 3 μL of stepwise diluted test compound solution were added to the 96-well plate. 30 μL of the above solution was added on the 96-well plate followed by the addition of 15 μL of the corresponding substrate solution. The 96-well plate and the NADPH solution were pre-incubated at 37° C. for 5 minutes, and 15 μL of NADPH solution was added to the 96-well plate to start the reaction. The assay plate was incubated at 37° C. for 5 minutes for 3A4, 10 minutes for 1A2, 2B6 and 2C9, 20 minutes for 2C8 and 2D6, and 45 minutes for 2C19. Then the reaction was terminated by 180 μL of acetonitrile containing internal standard substance. After quenching, the plate was shook for 10 minutes (600 rpm/min) and then centrifuged at 6000 rpm for 15 minutes. 80 μL of supernatant was taken from each well and transferred to a 96-well sample plate containing 120 μL of ultrapure water for LC-MS/MS analysis.

CYP 2C9 = CYP 2C9 (Homo sapiens, UniProt P11712); experiment: CYP inhibition test, human liver microsomes, CYP2C9
Sequence of CYP 2C9 (P11712 whole entry): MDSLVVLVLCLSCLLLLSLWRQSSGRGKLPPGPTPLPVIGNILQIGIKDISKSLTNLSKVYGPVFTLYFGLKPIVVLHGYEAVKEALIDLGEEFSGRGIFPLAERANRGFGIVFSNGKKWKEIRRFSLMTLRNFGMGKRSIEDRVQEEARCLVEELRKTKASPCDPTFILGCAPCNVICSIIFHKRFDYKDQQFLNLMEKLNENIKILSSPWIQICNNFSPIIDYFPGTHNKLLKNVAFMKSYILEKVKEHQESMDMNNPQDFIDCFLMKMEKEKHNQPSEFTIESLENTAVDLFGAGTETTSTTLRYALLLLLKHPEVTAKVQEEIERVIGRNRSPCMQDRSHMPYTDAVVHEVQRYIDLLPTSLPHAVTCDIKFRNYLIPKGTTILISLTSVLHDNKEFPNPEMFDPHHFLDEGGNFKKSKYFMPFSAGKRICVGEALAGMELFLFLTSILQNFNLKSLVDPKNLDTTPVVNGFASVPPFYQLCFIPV
Description: as §1
• 1. K/Mg buffer: the components were 0.1 mol/L potassium phosphate and 5 mmol/L magnesium chloride with pH 7.4±0.1, preheated. • 2. Solution of the test compound: the test compound was dissolved in dimethyl sulfoxide to prepare a stock solution of 10 mmol/L. 8 μL of 10 mmol/L stock solution was transferred to a 96-well plate containing 12 μL of acetonitrile as the highest concentration point, at 3-fold dilution, for 8 concentrations. • 3. NADPH solution: 66.7 mg of NADPH was dissolved in 10 mL of 0.1 mol/L K/Mg buffer to obtain 8 mmol/L NADPH solution with pH 7.4. • 4. Human liver microsomal stock solution: human liver microsomes were dissolved in 0.1 mol/L K/Mg buffer to obtain 20 mg/mL stock solution. • 5. Human liver microsomal working solution: 10 μL of 20 mg/mL human liver microsomal stock solution was taken and added into 990 μL of 0.1 mol/L K/Mg buffer to prepare 0.2 mg/mL human liver microsomal solution. • 6. […]

[1] = tested on: phosphorylation level of ERK in NCI-H358 cells; experiment: NCI-H358 pERK inhibitory activity (HTRF phospho-ERK); assay type: cell-based; details: Homo sapiens, 1 hour incubation
Description: Test purpose: to detect the inhibitory effect of the test compound on the phosphorylation level of ERK in NCI-H358 cells. • 2. […] Test method:
NCI-H358 cells suspension was seeded at 80 μL per well in a clear 96-well cell culture plate, with 10000 cells each well. The cell culture plate was placed in an incubator and incubated overnight at 37° C. under 5% CO2. After incubation, the cell supernatant was discarded, 80 μL of PRMI1640 medium containing 0.02% serum was added to each well, and the cell culture plate was placed in an incubator and incubated overnight at 37° C., under 5% CO2. The test compound was diluted with 100% DMSO to 4 mmol/L as the first concentration, and then diluted 5-fold to the 8th concentration using a pipette. 2 μL of compound or DMSO (as negative control) was taken and added with 158 μL of cell culture medium. After mixing evenly, 20 μL of the compound solution was taken and added to corresponding cell plate well. […] After incubation, the signals at 615 nm and 665 nm were read using a multi-label analyzer. The percent inhibition was calculated according to the following formula: Ratio=(signal 665 nm/signal 615 nm)×10000; the percent inhibition=(ratio of test compound-ratio of negative control)/(ratio of blank-ratio of negative control)×100%.

[2] = Plasma protein binding assay (equilibrium dialysis), human plasma; assay type: in vitro ADME; details: pH 7.4, equilibrium dialysis 5 hours, read-out: Plasma protein binding rate (%) (converted)
Description: • 1. Test purpose: to evaluate the protein binding rate of the test compound in human, dog, monkey, rat and mouse plasma by equilibrium dialysis; • 2. […] Experimental methods: • 0.1 mol/L sodium phosphate and 0.15 mol/L sodium chloride buffer with pH 7.4±0.1 was preheated;
Preparation of plasma containing test substance: the test compound was dissolved in DMSO to prepare a 10 mmol/l stock solution. 5 μL of stock solution was taken and diluted with 95 μL of acetonitrile to obtain solution A (0.5 mmol/L). 8 μL of solution A was taken and diluted with 192 μL of 0.1 mol/L sodium phosphate buffer to obtain solution B (0.02 mmol/L). 570 μL of plasma was added into a 96-well plate followed by the addition of 30 μL of solution B. The final concentration was 1 μmol/L with 0.01% DMSO.
The plate was shook at 600 rpm for 10 minutes, covered and stored in a freezer (−20° C.).
T5 sample preparation (in triplicate): the dialysis device was added with 100 μL of buffer on its receiver side and 100 μL of plasma containing the test compound on its doner side. And the dialysis device was then shook at 37° C. and 120 rpm for 5 hours. At the end of culture, 25 μL of plasma containing the test substance was taken from the plasma side and then added to a 96-well plate, followed by the addition of 25 μL of buffer and 200 μL of acetonitrile solution containing internal standard. […]

[3] = CYP 3 A4-M, substrate midazolam
[4] = CYP 3 A4-T, substrate testosterone

Sequence of CYP 3A4 (P08684 whole entry): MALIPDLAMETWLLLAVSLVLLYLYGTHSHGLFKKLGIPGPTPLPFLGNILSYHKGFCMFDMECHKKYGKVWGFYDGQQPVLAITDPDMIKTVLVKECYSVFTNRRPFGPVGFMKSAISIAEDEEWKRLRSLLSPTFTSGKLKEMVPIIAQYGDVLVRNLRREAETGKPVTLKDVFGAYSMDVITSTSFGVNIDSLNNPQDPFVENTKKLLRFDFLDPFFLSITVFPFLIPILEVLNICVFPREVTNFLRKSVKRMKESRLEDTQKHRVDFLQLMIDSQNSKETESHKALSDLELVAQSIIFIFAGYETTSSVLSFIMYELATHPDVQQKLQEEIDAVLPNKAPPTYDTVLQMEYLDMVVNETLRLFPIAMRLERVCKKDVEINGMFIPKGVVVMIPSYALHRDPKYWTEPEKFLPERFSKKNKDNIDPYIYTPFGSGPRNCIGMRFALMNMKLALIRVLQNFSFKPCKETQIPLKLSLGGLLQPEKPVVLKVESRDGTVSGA

Compound | IC50 (CYP 3A4; [3]) | IC50 (CYP 3A4; [4]) | IC50 (CYP 2C9) | IC50 [1] | fraction unbound at 5 h, 1 μmol/L [2]
C=CC(=O)N1CCN(c2nc(=O)n(-c3c(C)ccnc3C(C)C)c3nc(-c4c(O)cccc4F)c(F)cc23)[C@@H](C)C1 [AMG510] | 5.07 µM | > 10 µM | > 10 µM | 0.0883 µM | 0.075
C=C(F)C(=O)N1CCN(c2nc(OC[C@@H]3CCCN3C)nc3c2CCN(c2cccc4cccc(Cl)c24)C3)C[C@@H]1CC#N [MRTX849] | 6.83 µM | > 10 µM | 1.35 µM |  | 0.018
